# Data from US20100260680A1, “NOVEL BONE MASS INCREASING AGENT” (ORIENTAL YEAST CO., LTD., priority 2007, published 2010).
# Bridges are numbered along the chain shown (N, C = ends). Where no end group is shown, it is not given here.
# Key:
# [1] = tested on: MC3T3-E1 cells; experiment: DNA microarray analysis of MC3T3-E1 cells; type: cell-based, mouse; settings: 200 μM peptide D (acetate)
# Method: MC3T3-E1 cells mixed with 10% FBS+αMEM (SIGMA) were seeded on a 10 cm dish (2×10^5 cells/well). After 12 hours, the medium was removed therefrom. […] The medium was partially removed at 12 and 96 hours, at which time TRIZOL solution (Invitrogen) (3 mL) was added to each well for cell lysis. Then, total RNA extraction was carried out by the method described in Example 15. Each extracted total RNA (2 μg) was subjected to DNA microarray analysis (Mouse Genome 430 2.0 Affymetrix). In addition, scanning was performed with a GeneChip Scanner 3000 (Affymetrix 690036) and digitalization was performed with the Gene Chip Operating Software ver. 1.4.
# [2] = tested on: Human mesenchymal stem cells; experiment: ALP staining of human mesenchymal stem cells; type: cell-based; settings: Day 7 after differentiation; compared with the control group
# Method: Peptide D was added at a concentration of 300 μM during differentiation. On Day 7, cells were fixed with a 10% neutral buffer formalin solution, followed by re-fixation with an acetone/ethanol solution.
# A stain solution (500 μL) prepared with the composition described below was added to the cells, followed by incubation at 37° C. for 10 minutes, washing with water, and drying.
# Naphthol AS-MX phosphate (SIGMA): 5 mg
# Fast blue hemi-salt (SIGMA): 30 mg
# [3] = tested on: Human mesenchymal stem cells; experiment: Alizarin red S staining (calcification) of human mesenchymal stem cells; type: cell-based; settings: 300 μM; Day 21; regardless of induction of differentiation
# Method: On Day 21 after differentiation, the cells were washed with PBS, followed by fixation with a 10% neutral buffer formalin solution.
# The cells were washed with water after removal of the fixative solution. A 1% alizarin red S stain solution (Nacalai) (150 μL) was added thereto. The plate was left at room temperature for 3 minutes. Thereafter, the stain solution was discarded, followed by washing with water and drying. Then, microscopic observation was carried out.
# Human mesenchymal stem cells were cultured in the same manner as in Example 1. Peptide D (300 μM) was added to human mesenchymal stem cells.
# [4] = molecular target: T1, RANKL (Homo sapiens, UniProt O14788); settings: Aoki et al., J Clin Invest 116: 1525, 2006; cited from earlier work
# T1 sequence (O14788 140-317 limits assumed): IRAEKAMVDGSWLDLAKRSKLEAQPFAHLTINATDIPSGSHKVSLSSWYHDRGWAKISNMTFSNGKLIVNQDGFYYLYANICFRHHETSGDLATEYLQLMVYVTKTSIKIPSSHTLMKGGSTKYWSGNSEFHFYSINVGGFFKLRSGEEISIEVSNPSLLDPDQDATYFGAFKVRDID
# [5] = tested on: Smad1/5/8; experiment: Western blotting of Smad1/5/8 phosphorylation in MC3T3-E1 cells; type: cell-based, mouse; settings: up to 3 hours after the addition; 200 μM peptide D or 200 ng/ml BMP-2
# Method: MC3T3-E1 cells mixed with 10% FBS+αMEM (SIGMA) were seeded on a 6-well plate (7.5×10^4 cells/well). […] The medium was removed at the respective time points shown in the relevant figures. PBS was added to the cells, and the cells were collected with a scraper (Falcon). A cell pellet was obtained via centrifugation at 1200 rpm for 5 min at 4° C. RIPA buffer (100 μL) was added to the collected pellet, for dissolution of the cellular membrane. Further, the resultant was centrifuged under conditions of 14500 rpm for 25 min at 4° C. The supernatant was collected as a cell extract. A portion of the cell extract was used for quantification of the protein concentration with the use of a BCA protein assay kit (PIERCE). For SDS-PAGE, a sample buffer in an amount that was ¼ that of the cell extract (Fermentas) was added thereto, followed by heating at 95° C. for 5 min. The prepared sample was applied in an amount of 7.5 or 10 μg to 10% polyacrylamide gel (BioRad), followed by electrophoresis at 170 V for 1 hour. After electrophoresis, the electrophoresed sample was transferred to a PVDF membrane (Millipore) at 80 mA for 40 min. The membrane was shaken in a blocking solution (Nacalai) at room temperature for 1 hour and then a primary antibody was added thereto, followed by shaking at room temperature for 1 hour at 4° C. for 12 hours. […]
# [6] = tested on: Human mesenchymal stem cells; experiment: ALP activity determination in human mesenchymal stem cells; type: cell-based; settings: Day 7, differentiation medium and maintenance medium
# Method: Human mesenchymal stem cells were seeded on a 96-well plate (1×10^3 cells/well) (Nunc) and a 48-well plate (2.4×10^3 cells/well) (IWAKI). After 24 hours, the culture supernatant was removed from each plate and an osteoblast differentiation induction medium (Lonza) was introduced thereonto. The medium was replaced with new medium every 3 or 4 days.
# At such time, peptide D was added at a concentration of 100 μM (group treated with peptide D). As a negative control, the control peptide was added at the same concentration.
# Seven days after differentiation, the culture supernatant was removed from each plate and the cells were fixed with an acetone/ethanol solution. The ALP activity was determined using p-nitrophenyl phosphate as a substrate. Specifically, a carbonate buffer (5 mM MgCl2, 50 mM NaHCO3) containing p-nitrophenyl phosphate (Nacalai) (1 mg/mL) was added to each well (100 μL/well), followed by incubation at 37° C. Then, the OD value at 405 nm was determined with the use of a microplate reader (BMG Labtech) for each well.
# Human mesenchymal stem cells (hMSC; Lonza) were seeded on a 96-well plate (Nunc) (2×10^3 cells/well). After cell adhesion had taken place, the medium was replaced with a differentiation medium prepared by adding 100 nM dexamethasone (SIGMA), 10 mM BGP(SIGMA), and 50 μg/mL ascorbic acid to a dedicated maintenance medium (Lonza). […]
substance,measurement,setting,value
"peptide D: cyclic peptide of SEQ ID NO: 7, 9 amino acids, two cysteine residues bound via a disulfide bond; binds to RANKL (YCWSQYLCY; disulfide 2-8 (inferred))",expression level of the osteocalcin (OC) gene,[1],increased sharply
same,"gene expression levels of IRS-1, IGF-1, FGF receptor 2, PDGF receptor β, PDGF receptor α, CTGF, type I collagen α1 and α2 chains",[1]; 12 hours,increased significantly
same,"gene expression levels of IGF-2, ALP, BMP-4, OC (osteocalcin), FGF2, PDGFc, PDGFα, PDGFβ",[1]; 96 hours,increased significantly
same,ALP staining,[2],observed in a concentration-dependent manner
same,alizarin red staining (calcification),[3],strong degree of alizarin red staining
same,binding to RANKL,[4],binds to RANKL
same,phosphorylation of Smad1/5/8,[5],not induced
same,ALP activity,[6]; 300 μM,significant increase in ALP activity
same,ALP activity,[6]; peptide D 100 μM,significantly increased
